Here are results for 16 substances from patent US10093674B2, “Supramolecular nanofibers and hydrogels based on nucleic acids functionalized with nucleobases” (Brandeis University, priority 2011, dated 2018).

In general, cell viability refers to the share of living cells, or the viability signal relative to a control. High values mean less harm to the cells, low ones more harm to the cells.

Test [1] has as its system HeLa cells. Particulars: 500 μM, 72 hours; for cell viability: MTT assay. From the text: To verify the biocompatibility of the hydrogelators, we added hydrogelator 1 or precursor 2 into the culture of HeLa cells and measured the proliferation of the cells.
(Tetrazolium dyes change colour on reduction, which living cells bring about.)

The test system of test [2] is alkaline phosphatase (ALP). Particulars: 12 h after the addition of alkaline phosphatase, 31P NMR. The source says:
Following the procedures reported by Nieddu for making nucleobase acetic acids, we first synthesized bis(tert-butyloxycarbonyl) (bis-Boc) protected adenine, (N^6-bis-Boc-adenine-9-yl)-acetic acid (4). After being activated by N-hydroxysuccinimide (NHS), 4 reacts with L-Phe to afford 5, which undergoes the same NHS activation and phenylalanine coupling to give the key intermediate 6.

The subject of another test is mammalian cells. Particulars: 500 μM, 72 hours; for cell viability: mammalian cells, MTT assay. As for the experimental part: To verify the biocompatibility of the hydrogelators, hydrogelators 1′ and 2′ were added into a culture of mammalian cells, and the proliferation of the cells was measured.
Test [3] has as its system HeLa cells. Particulars: 500 μM 1T′ and 0.1 μM nucleic acid complex, 24 h. The procedure: HeLa cells were seeded in 2 well chamber slide at a density of 10,000 cell/well. […] After incubation at 37° C. for 24 h, we removed the culture medium, washed the cells by 1 mL PBS for 3 times, then resin the cells in 1 mL PBS. Fluorescence images were taken by using confocal fluorescence microscope. FIG. 34.

Test [4] concerns HeLa cells. Particulars: 500 μM in medium, 20 h.
Description: HeLa cells were re-suspended in 10 cm tissue culture dish after washing cells once with PBS. 0.8 mL 0.25% trypsin containing 0.1% EDTA was then added, and the cells were re-suspended with 1.6 mL complete medium. 5000 cells (in 100 μL medium) were plated into each vial on a 96 well plate to create a confluent monolayer. After adherent for 24 h, a wound was created by scraping the cell monolayer with a p200 pipet tip. The cells were washed once with 100 μL of complete medium to remove flowing cells and replace with 100 μL of complete medium. 0 h image was acquired as a reference point. […] 0 h and 20 h images were acquired at the match photographed region.

Turning to Adenine-Phe-Phe [Compound 1A], the cell viability in the test on HeLa cells [1] stood at 100%.

In turn, “Adenine-Phe-Phe-Tyr-phosphate [Compound 2A]” returned a cell viability in the test with HeLa cells [1] of 100%. Also, the “transformation of precursor into hydrogelator” value in test [2] is “completely transforms”.

Adenine-Phe-Phe-glucosamine [2A′] showed a cell viability with mammalian cells of 90%.

Take Adenine-Phe-glucosamine [1A′]: in the test with mammalian cells, the “cell viability (in words)” value was “decreased slightly”.

For Cytosine-Phe-Glucosamine [1C′], in the test with mammalian cells, the “cell viability (in words)” value is “decreased slightly”.

With Cytosine-Phe-Phe [Compound 1C], the cell viability with HeLa cells [1] is 100%.

With Cytosine-Phe-Phe-Glucosamine [2C′], the cell viability in the test on mammalian cells is 90%.

Substance “Cytosine-Phe-Phe-Tyr-phosphate [Compound 2C]” registered a cell viability with HeLa cells [1] of 100%.

Guanine-Phe-Phe [Compound 1G]: the “cell viability (in words)” value in the test on HeLa cells [1] is “decreases slightly”.

For the substance “Guanine-Phe-Phe-Tyr-phosphate [Compound 2G]”, the “cell viability (in words)” value with HeLa cells [1] is listed as “decreases slightly”.

In the case of Guanine-Phe-Phe-glucosamine [2G′], the cell viability in the test on mammalian cells is on record as 90%.

As for Guanine-Phe-glucosamine [1G′], the cell viability with mammalian cells came out at 90%.

In the test with HeLa cells [1], Thymine-Phe-Phe [Compound 1T] showed a cell viability of 100%.

In the case of “Thymine-Phe-Phe-Tyr-phosphate [Compound 2T]”, the cell viability with HeLa cells [1] turned out to be 100%.

Thymine-Phe-Phe-glucosamine [2T′]: in the test with mammalian cells, the cell viability is 90%.

In the case of Thymine-Phe-glucosamine [1T′], in the test on mammalian cells, the cell viability was 90%. The “delivery of FITC-labeled nucleic acid” value in the test with HeLa cells [3] is given as “nuclear localization of DNA”. In addition, the “effect on the migration of cells” value in the test on HeLa cells [4] is recorded as “little inhibitory effect”.
